# Results reported in ChEMBL document CHEMBL5584354, “Impact of Conjugation of the Reactive Oxygen Species (ROS)-Generating Catalytic Moiety with Membrane-Active Antimicrobial Peptoids: Promoting Multitarget Mechanism and Enhancing Selectivity” (J Med Chem, 2024).
# Activity calls are given as the source filed them. The rule behind the calls is not given here. Non-standard residues stand in square brackets, D forms with d. Residues, ends and D or L forms follow the SMILES beside them. Gly(N(CH2)2(3-indolyl)) = O=C(O)CNCCc1c[nH]c2ccccc12; Nspe = C[C@H](NCC(=O)O)c1ccccc1; Nlys = NCCCCNCC(=O)O
# Key:
# HEK293 [1] = assay: Cytotoxicity against HEK293 cells assessed as cell killing incubated for 24 hrs by MTS assay; format: toxicity, cell-based; conditions: human, hek293, 24 h
# Escherichia coli [2] = assay: Induction of lipid peroxidation in Escherichia coli ATCC 25922 assessed as increase in MDA level at 10 uM incubated for 2 hrs by TBARS assay; format: functional, organism-based
# Escherichia coli [3] = assay: (§1) Antibacterial activity against Escherichia coli K1 infected in female ICR mouse model of septic shock assessed as reduction in bacterial load in lung at 5 mg/kg, ip pretreated for 1 hr followed by bacteria addition and further treated with 3 doses of compound every 4 hrs; format: functional, organism-based; conditions: time 9.0 hrs
# HaCaT = assay: Cytotoxicity against human HaCaT cells assessed as cell killing incubated for 24 hrs by MTS assay; format: toxicity, cell-based
# RAW264.7 [4] = assay: Inhibition of LPS-induced NF-kappaB pathway in mouse RAW264.7 cells assessed as reduction in NF-kappaB nuclear translocation at 10 uM preincubated for 1 hr followed by LPS addition and measured after 1 hr by immunofluorescence staining based confocal microscopic analysis; format: cell-based; conditions: time 2.0 hrs
# Escherichia coli [5] = assay: Antibacterial activity against carbapenem-resistant Escherichia coli NMS11035 harboring extended-spectrum beta-lactamase assessed as inhibition of bacterial growth incubated for 24 hrs by broth dilution method; format: functional
# Acinetobacter baumannii = assay: Antibacterial activity against carbapenem-resistant Acinetobacter baumannii NMS1707 harboring extended-spectrum beta-lactamase assessed as inhibition of bacterial growth incubated for 24 hrs by broth dilution method; format: functional
# Escherichia coli [6] = assay: Antibacterial activity against Escherichia coli K1 infected in female ICR mouse model of septic shock assessed as reduction in BUN level in serum at 5 mg/kg, ip pretreated for 1 hr followed by bacteria addition and further treated with 3 doses of compound every 4 hrs relative to control; format: functional; set-up: scale not given: the % may be the effect or the level left; conditions: time 9 hrs
# HEK293 [7] = assay: Cytotoxicity against HEK293 cells assessed as reduction in cell viability at 3.1 to 25 uM incubated for 24 hrs by WST-8 assay; format: toxicity, cell-based; conditions: human, hek293, 24 h, dose 3.1-25 µM
# DNA = assay: Binding affinity to pUC19 plasmid DNA (unknown origin) assessed as smearing and retardation of DNA bands at 25 uM incubated for 2 hrs by agarose gel imaging method; format: nucleic-acid assay
# MRC5 = assay: Cytotoxicity against human MRC5 cells assessed as cell killing incubated for 24 hrs by MTS assay; format: toxicity, cell-based; conditions: mrc5, 24 h
# Escherichia coli [8] = assay: Antibacterial activity against Escherichia coli K1 infected in female ICR mouse model of septic shock assessed as creatinine level in serum at 5 mg/kg, ip pretreated for 1 hr followed by bacteria addition and further treated with 3 doses of compound every 4 hrs (reference value: 57.3%); format: functional; conditions: time 9 hrs
# HEK-Blue hTLR7 = assay: Inhibition of TLR4-mediated inflammatory signaling in LPS-stimulated HEK-Blue […] cells assessed as reduction in SEAP activity at 20 uM preincubated for 1 hr followed by LPS stimulation and measured after 16 hrs by ELISA relative to control; format: cell-based; conditions: Homo sapiens, time 17.0 hrs
# RAW264.7 [9] = assay: Antiinflammatory activity in LPS-stimulated mouse RAW264.7 cells assessed as reduction in IL-6 production at 10 uM incubated for 16 hrs by ELISA relative to control; format: functional; set-up: scale not given: the % may be the effect or the level left
# Cell membrane [10] = assay: Disruption of inner membrane in Escherichia coli ATCC 25922 assessed as increase in absorbance incubated for 1 hr by ONPG assay; format: cell membranes; conditions: dose 0-25 µM
# RAW264.7 [11] = assay: Antiinflammatory activity in LPS-stimulated mouse RAW264.7 cells assessed as reduction in IL-1beta production at 10 uM incubated for 16 hrs by ELISA relative to control; format: functional; set-up: scale not given: the % may be the effect or the level left
# [12] = Acute toxicity in female ICR mouse assessed as animal survival at 5 mg/kg, ip administered four doses for 12 hrs; format: organism-based; conditions: in vivo
# Escherichia coli [13] = assay: as §1, with “pulmonary congestion” for “bacterial load”, “hrs by H and E staining based light microscopic analysis” for “hrs”; format: functional, organism-based; conditions: time 9.0 hrs
# Escherichia coli [14] = assay: Antibacterial activity against Escherichia coli K1 infected in female ICR mouse model of septic shock assessed as reduction in ALT level in serum at 5 mg/kg, ip pretreated for 1 hr followed by bacteria addition and further treated with 3 doses of compound every 4 hrs relative to control; format: functional; set-up: scale not given: the % may be the effect or the level left; conditions: time 9 hrs
# [15] = Toxicity in female ICR mouse assessed as lymphocyte infiltration in kidney at 5 mg/kg, ip administered four doses for 12 hrs and measured 24 hrs post last dose by H and E staining based light microscopic analysis; format: organism-based; conditions: in vivo, 36 h
# [16] = Hemolytic activity in male Sprague-Dawley rat erythrocytes assessed as concentration required for 50% hemolysis incubated for 1 hr by absorbance based method; format: toxicity, cell-based, Erythrocyte
# L929 = assay: Cytotoxicity against mouse L929 cells assessed as reduction in cell viability at 3.1 to 25 uM incubated for 24 hrs by WST-8 assay; format: toxicity, cell-based; conditions: l929, 24 h, dose 3.1-25 µM
# [17] = Toxicity in female ICR mouse assessed as effect on blood urea nitrogen level at 5 mg/kg, ip administered four doses for 12 hrs and measured 24 hrs post last dose; format: organism-based; conditions: in vivo, 36 h
# [18] = Toxicity in female ICR mouse assessed as effect on creatinine level in serum at 5 mg/kg, ip administered four doses for 12 hrs and measured 24 hrs post last dose; format: organism-based; conditions: in vivo, 36 h
# [19] = Toxicity in female ICR mouse infected with Escherichia coli K1 assessed as lung injury at 5 mg/kg, ip pretreated for 1 hr followed by bacteria addition and further treated with 3 doses of compound every 4 hrs; format: organism-based; conditions: in vivo, 9 h
# Escherichia coli [20] = assay: Antibacterial activity against colistin-resistant Escherichia coli NMS12 harboring extended-spectrum beta-lactamase assessed as inhibition of bacterial growth incubated for 24 hrs by broth dilution method; format: functional
# Escherichia coli [21] = assay: as §1, with “alveolar hemorrhage” for “bacterial load”, “hrs by H and E staining based light microscopic analysis” for “hrs”; format: functional, organism-based; conditions: time 9.0 hrs
# [22] = Toxicity in female ICR mouse assessed as dilatation of interstitial blood capillaries in kidney at 5 mg/kg, ip administered four doses for 12 hrs and measured 24 hrs post last dose by H and E staining based light microscopic analysis; format: organism-based; conditions: in vivo, 36 h
# Lipopolysaccharide (LPS) = assay: Binding affinity to Escherichia coli O111:B4 LPS at 0 to 25 uM BODIPY-TR-cadaverine substitution assay; format: subcellular; conditions: dose 0-25 µM
# Escherichia coli [23] = assay: Induction of lipid peroxidation in Escherichia coli ATCC 25922 at 12.5 uM incubated for 1 hrs by BODIPY 581/591 C11 dye based flow cytometry analysis; format: functional, organism-based
# [24] = Selectivity index, ratio of HC10 for hemolytic activity in male Sprague-Dawley rat erythrocytes to MIC for antibacterial activity against Escherichia coli ATCC 25922; format: toxicity; conditions: read-out: Selectivity Index
# RAW264.7 [25] = assay: Antiinflammatory activity in LPS-stimulated mouse RAW264.7 cells assessed as reduction in nitrite production at 10 uM incubated for 16 hrs by ELISA relative to control; format: functional; set-up: scale not given: the % may be the effect or the level left
# Cell membrane [26] = assay: Disruption of outer membrane in Escherichia coli ATCC 25922 assessed as increase in absorbance measured every 5 mins for 90 mins by nitrocefin assay; format: cell membranes; conditions: dose 0-25 µM
# Escherichia coli [27] = assay: as §1, with “in” for “in bacterial load in”, “lung edema” for “lung”, “hrs by H and E staining based light microscopic analysis” for “hrs”; format: functional, organism-based; conditions: time 9.0 hrs
smiles,measurement,setting,value
C[C@@H](c1ccccc1)N(CC(=O)N(CCCCN)CC(=O)N(CCc1c[nH]c2ccccc12)CC(=O)N(CCc1c[nH]c2ccccc12)CC(N)=O)C(=O)CN(CCCCN)C(=O)CN(CCCCN)C(=O)CN(C(=O)CN(C(=O)CN(CCCCN)C(=O)CN(C(=O)CN(C(=O)CN(CCCCN)C(=O)[C@H](Cc1c[nH]cn1)NC(=O)CNC(=O)CN)[C@@H](C)c1ccccc1)[C@@H](C)c1ccccc1)[C@@H](C)c1ccccc1)[C@@H](C)c1ccccc1 (H-GGH[Nlys][Nspe][Nspe][Nlys][Nspe][Nspe][Nlys][Nlys][Nspe][Nlys][Gly(N(CH2)2(3-indolyl))][Gly(N(CH2)2(3-indolyl))]-NH2),LC50,HEK293 [1],39.5 µM
same,Activity,Escherichia coli [2],Active
same,Activity,Escherichia coli [3],Active
same,LC50,HaCaT,110 µM
same,inhibition,RAW264.7 [4],Active
same,MIC,Escherichia coli [5],12.5 µM
same,MIC,Acinetobacter baumannii,3.1 µM
same,Activity,Escherichia coli [6],40.3%
same,Activity,HEK293 [7],Non-Toxic
same,Activity,DNA,Active
same,LC50,MRC5,187 µM
same,Activity,Escherichia coli [8],32.8%
same,inhibition,HEK-Blue hTLR7,84.3%
same,Activity,RAW264.7 [9],99.3%
same,Activity,Cell membrane [10],Dose-Dependent Effect
same,Activity,RAW264.7 [11],36%
same,Survival,[12],> 96 h
same,Activity,Escherichia coli [13],Active
same,Activity,Escherichia coli [14],51.1%
same,Activity,[15],Non-Toxic
same,HC50 at 1 h,[16],> 100 µM
same,Activity,L929,Non-Toxic
same,Activity,[17],Non-Toxic
same,Activity,[18],Non-Toxic
same,Activity,[19],Non-Toxic
same,MIC,Escherichia coli [20],12.5 µM
same,Activity,Escherichia coli [21],Active
same,Activity,[22],Non-Toxic
same,Activity,Lipopolysaccharide (LPS),Active
same,Activity,Escherichia coli [23],Active
same,selectivity ratio,[24],> 15.8
same,Activity,RAW264.7 [25],80.9%
same,Activity,Cell membrane [26],Dose-Dependent Effect
same,Activity,Escherichia coli [27],Active
